The values that follow are results of earlier work, collected in US6815453B1, “Cosmetic and dermatological light protection formulations having a content of triazine derivatives and glyceryl compounds” (Beiersdorf AG, priority 1996, dated 2004).

As to `CCCCC(CC)COC(=O)c1ccc(Nc2nc(Nc3ccc(C(=O)OCC(CC)CCCC)cc3)nc(Nc3ccc(C(=O)OCC(CC)CCCC)cc3)n2)cc1` (stereo not drawn) [UVINUL® T 150, 4,4′,4″-(1,3,5-triazine-2,4,6-triyltriimino)-trisbenzoic acid tris(2-ethylhexyl ester)], the “corresponding dissolved, and therefore active, UV filter substance” value (corresponding to the maximum solubility in known solvents) was 1-1.5 % by weight. Moreover, the “maximum amount of the filter dissolved by known solvents” value (known solvents for this UVB filter, prior-art statement) is reported as no more than 15 % by weight. Besides, the solubility in lipids entry (stated in words as the main disadvantage) is “poor solubility in lipids”.
